Laboratory results taken from publication PMC2816240 (European Journal of Nuclear Medicine and Molecular Imaging, 2009).

How the values were obtained:
male Wistar rats [1] = assay type: in vivo, rat; details: 20 h post-injection, n = 5 rats, vs PBS
male Wistar rats [2] = test: Adverse effects of injection in rats; assay type: in vivo; details: peptide #6 0.2, 1 or 5 mg per rat i.v.

ENFVAFVDKCCAADDKEA CFAVEGPKLVVSTQTALA [peptide #6]
uptake of 111In-octreotide in the pancreas and other organs (male Wistar rats [1]; peptide #6 5 mg i.v.): unaffected
uptake of 111In-minigastrin and 111In-exendin in organs other than the kidneys (male Wistar rats [1]; peptide #6 i.v.): not affected
adverse effects of injection (male Wistar rats [2]): no adverse effects
